According to article PMC4818591 (ChemMedChem, 2015):

Legend:
HDAC6 = biological target: T1, HDAC6 (Homo sapiens, UniProt Q9UBN7); experiment: HDAC6 isozyme inhibition; format: biochemical; settings: read-out: HDAC Isoform, IC50, Class II, 6; duplicate, 10-dose IC50 mode, 3-fold serial dilution starting at 30 μM; average ± standard deviation
T1 sequence (Q9UBN7 1-1215): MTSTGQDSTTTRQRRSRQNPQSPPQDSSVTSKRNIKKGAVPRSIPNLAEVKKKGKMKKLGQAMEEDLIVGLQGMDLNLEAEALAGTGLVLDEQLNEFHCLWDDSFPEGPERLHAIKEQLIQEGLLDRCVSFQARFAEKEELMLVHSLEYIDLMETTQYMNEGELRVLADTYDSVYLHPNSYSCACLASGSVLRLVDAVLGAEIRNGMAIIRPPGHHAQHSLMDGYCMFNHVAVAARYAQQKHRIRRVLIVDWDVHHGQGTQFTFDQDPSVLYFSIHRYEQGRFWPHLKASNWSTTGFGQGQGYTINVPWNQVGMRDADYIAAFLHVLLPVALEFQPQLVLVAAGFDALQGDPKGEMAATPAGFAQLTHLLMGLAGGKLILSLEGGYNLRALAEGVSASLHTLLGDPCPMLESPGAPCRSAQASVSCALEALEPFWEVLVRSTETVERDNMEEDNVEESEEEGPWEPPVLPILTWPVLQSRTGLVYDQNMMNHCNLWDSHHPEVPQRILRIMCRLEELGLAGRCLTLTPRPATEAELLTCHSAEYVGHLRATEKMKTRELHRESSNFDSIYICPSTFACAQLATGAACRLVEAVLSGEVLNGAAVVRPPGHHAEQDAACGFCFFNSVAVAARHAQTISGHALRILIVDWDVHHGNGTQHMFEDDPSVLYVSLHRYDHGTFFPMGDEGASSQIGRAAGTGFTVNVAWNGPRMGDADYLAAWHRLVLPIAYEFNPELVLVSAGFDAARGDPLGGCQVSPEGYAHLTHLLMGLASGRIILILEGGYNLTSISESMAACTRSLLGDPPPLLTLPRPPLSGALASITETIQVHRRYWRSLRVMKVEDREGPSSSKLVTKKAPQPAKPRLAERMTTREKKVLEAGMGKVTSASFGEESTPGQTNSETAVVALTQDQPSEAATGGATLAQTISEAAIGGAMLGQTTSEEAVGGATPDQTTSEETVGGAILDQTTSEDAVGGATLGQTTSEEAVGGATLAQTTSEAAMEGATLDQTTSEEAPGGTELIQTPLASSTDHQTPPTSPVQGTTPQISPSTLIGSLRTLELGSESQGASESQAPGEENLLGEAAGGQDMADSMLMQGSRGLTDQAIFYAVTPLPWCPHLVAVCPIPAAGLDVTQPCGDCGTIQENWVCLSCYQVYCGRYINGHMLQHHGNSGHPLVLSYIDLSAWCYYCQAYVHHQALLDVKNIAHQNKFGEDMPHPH

HDAC3 = HDAC3 (Homo sapiens, UniProt O15379); experiment: HDAC3 isozyme inhibition; format: biochemical; settings: for SI HDAC3/6: selectivity index
Sequence of HDAC3 (O15379 whole entry): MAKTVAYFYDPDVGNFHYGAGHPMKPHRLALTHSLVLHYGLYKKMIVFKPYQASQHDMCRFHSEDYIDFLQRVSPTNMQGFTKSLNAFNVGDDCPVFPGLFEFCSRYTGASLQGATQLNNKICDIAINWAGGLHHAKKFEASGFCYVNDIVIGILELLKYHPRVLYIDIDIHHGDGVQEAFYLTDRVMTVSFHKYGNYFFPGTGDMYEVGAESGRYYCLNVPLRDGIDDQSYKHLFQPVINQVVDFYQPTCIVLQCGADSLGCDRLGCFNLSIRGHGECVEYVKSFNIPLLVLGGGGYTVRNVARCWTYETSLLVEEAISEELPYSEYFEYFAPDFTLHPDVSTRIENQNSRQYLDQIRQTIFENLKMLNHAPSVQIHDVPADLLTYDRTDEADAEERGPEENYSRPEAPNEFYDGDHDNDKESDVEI
Sequence of HDAC3 (Q9Y618 395-489 partner limits assumed): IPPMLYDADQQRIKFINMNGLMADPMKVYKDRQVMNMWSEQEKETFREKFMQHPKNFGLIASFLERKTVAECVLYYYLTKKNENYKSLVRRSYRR

HDAC10 = biological target: T2, HDAC10 (Homo sapiens, UniProt Q969S8); experiment: HDAC10 isozyme inhibition; format: biochemical; settings: for SI HDAC10/6: selectivity index
T2 sequence (Q969S8 1-669): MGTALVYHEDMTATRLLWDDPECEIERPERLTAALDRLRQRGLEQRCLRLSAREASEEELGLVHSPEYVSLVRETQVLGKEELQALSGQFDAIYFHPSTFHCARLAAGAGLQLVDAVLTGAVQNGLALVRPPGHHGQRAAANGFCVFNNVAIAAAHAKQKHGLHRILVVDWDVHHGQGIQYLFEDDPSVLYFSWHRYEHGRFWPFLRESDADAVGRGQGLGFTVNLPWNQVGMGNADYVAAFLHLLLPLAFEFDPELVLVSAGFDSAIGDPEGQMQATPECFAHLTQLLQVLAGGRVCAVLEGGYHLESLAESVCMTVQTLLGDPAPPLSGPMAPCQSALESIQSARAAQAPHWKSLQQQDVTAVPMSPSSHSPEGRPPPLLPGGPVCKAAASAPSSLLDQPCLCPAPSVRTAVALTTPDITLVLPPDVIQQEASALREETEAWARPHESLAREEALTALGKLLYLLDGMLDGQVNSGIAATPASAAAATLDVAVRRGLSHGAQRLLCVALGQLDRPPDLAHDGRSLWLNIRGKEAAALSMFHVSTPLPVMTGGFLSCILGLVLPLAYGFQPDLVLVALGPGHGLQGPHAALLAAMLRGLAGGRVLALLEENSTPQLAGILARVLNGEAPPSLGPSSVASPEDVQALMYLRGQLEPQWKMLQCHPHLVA

HDAC2 = HDAC2 (Homo sapiens, UniProt Q92769); experiment: HDAC2 isozyme inhibition; format: biochemical; settings: for SI HDAC2/6: selectivity index
Sequence of HDAC2 (Q92769 whole entry): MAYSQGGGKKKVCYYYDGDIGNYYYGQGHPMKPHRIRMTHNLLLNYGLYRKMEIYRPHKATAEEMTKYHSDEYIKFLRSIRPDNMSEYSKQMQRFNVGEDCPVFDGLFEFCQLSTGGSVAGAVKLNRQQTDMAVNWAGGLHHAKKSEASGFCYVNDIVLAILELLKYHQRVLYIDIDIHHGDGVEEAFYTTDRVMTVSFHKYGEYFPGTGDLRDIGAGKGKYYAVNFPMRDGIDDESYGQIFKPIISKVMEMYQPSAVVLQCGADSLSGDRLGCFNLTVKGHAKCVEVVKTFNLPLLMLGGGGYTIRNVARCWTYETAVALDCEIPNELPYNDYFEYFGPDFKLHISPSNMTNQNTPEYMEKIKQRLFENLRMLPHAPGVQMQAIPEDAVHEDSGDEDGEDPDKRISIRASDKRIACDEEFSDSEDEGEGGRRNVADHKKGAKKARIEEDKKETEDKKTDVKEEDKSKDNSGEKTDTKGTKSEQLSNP

[1] = tested on: L3.6pl pancreatic cancer cells; experiment: Apoptosis by Hoechst staining and PARP cleavage, L3.6pl; format: cell-based; settings: 10 μM, 24 h
HDAC1 = HDAC1 (Homo sapiens, UniProt Q13547); experiment: HDAC1 isozyme inhibition; format: biochemical; settings: for SI HDAC1/6: selectivity index
Sequence of HDAC1 (Q13547 whole entry): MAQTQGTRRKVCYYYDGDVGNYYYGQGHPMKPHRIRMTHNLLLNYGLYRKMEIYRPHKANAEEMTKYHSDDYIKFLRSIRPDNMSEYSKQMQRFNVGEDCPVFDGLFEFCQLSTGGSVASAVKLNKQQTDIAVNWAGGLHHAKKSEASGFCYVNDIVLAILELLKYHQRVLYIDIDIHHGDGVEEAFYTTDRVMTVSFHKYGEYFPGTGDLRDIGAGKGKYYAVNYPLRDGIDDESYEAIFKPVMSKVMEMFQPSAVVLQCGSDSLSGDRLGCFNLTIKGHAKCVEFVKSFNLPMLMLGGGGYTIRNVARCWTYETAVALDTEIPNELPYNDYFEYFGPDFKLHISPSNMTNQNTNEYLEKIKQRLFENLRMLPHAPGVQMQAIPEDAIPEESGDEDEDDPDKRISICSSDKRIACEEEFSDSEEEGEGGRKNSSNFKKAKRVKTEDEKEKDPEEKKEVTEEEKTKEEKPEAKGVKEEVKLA

[2] = tested on: BxPC3 pancreatic cancer cells; experiment: Apoptosis induction, BxPC3; format: cell-based; settings: BxPC3, data not shown
[3] = tested on: L3.6pl pancreatic cancer cells; experiment: Growth inhibition, MTS cell proliferation assay, L3.6pl; format: cell-based; settings: Homo sapiens, 72 h, read-out: L3.6pl GI50
[4] = tested on: BxPC3 subcutaneous xenograft; settings: BxPC3 subcutaneous xenograft mouse model; cited from earlier work

| Compound | IC50 (HDAC6) | IC50 (HDAC3; read-out: HDAC Isoform, IC50, Class I, 3, singlet, 10-dose IC50 mode, 3-fold serial dilution starting at 30 μM, >50000 = no inhibition at 50 μM) | SI HDAC3/6 (HDAC3) | IC50 (HDAC10; read-out: HDAC Isoform, IC50, Class II, 10, singlet, 10-dose IC50 mode, 3-fold serial dilution starting at 30 μM, >50000 = no inhibition at 50 μM) | SI HDAC10/6 (HDAC10) | IC50 (HDAC2; read-out: HDAC Isoform, IC50, Class I, 2, singlet, 10-dose IC50 mode, 3-fold serial dilution starting at 30 μM, >50000 = no inhibition at 50 μM) | SI HDAC2/6 (HDAC2) | induction of apoptosis (Hoechst staining, PARP cleavage) [1] | IC50 (HDAC1; read-out: HDAC Isoform, IC50, Class I, 1, singlet, 10-dose IC50 mode, 3-fold serial dilution starting at 30 μM, >50000 = no inhibition at 50 μM) | SI HDAC1/6 (HDAC1) | induction of apoptosis [2] | GI50 [3] | apoptosis and tumor growth [4] |
| --- | --- | --- | --- | --- | --- | --- | --- | --- | --- | --- | --- | --- | --- |
| O=C(CCc1cc(C(=O)NO)no1)Nc1nc(-c2ccccc2)cs1 [Compound 2, 5-[2-[N-(4-Phenylthiazol-2-yl)carbamoyl]ethyl]isoxazole-3-carbohydroxyamic Acid] | 31 ± 3.4 nM | 320 nM | 10 | 407 nM | 13 | 1140 nM | 37 | effectively induced apoptosis | 307 nM | 10 | none of compounds 1, 2, or 4 induced apoptosis | – | – |
| O=C(CCCc1cc(C(=O)NO)no1)Nc1nc(-c2ccccc2)cs1 [Compound 1, 5-[3-[N-(4-Phenylthiazol-2-yl)carbamoyl]propyl]isoxazole-3-carbohydroxamic Acid] | – | – | 11 | – | 10 | – | 15 | effectively induced apoptosis | – | 4.3 | none of compounds 1, 2, or 4 induced apoptosis | 1300 nM | – |
| CCOC(=O)Nc1ccc(-c2csc(NC(=O)CCCc3cc(C(=O)NO)no3)n2)cc1 [Compound 4, N-[4-[2-[4-[3-(N-Hydroxycarbamoyl)isoxazol-5-yl]butyrylamino]thiazol-4-yl]phenyl]carbamic Acid Ethyl Ester] | – | – | 7.2 | – | 6.6 | – | 17 | effectively induced apoptosis | – | 4.1 | none of compounds 1, 2, or 4 induced apoptosis | – | – |
| Cc1[nH]c2ccccc2c1CCNCc1ccc(/C=C/C(=O)NO)cc1 [panobinostat] | – | – | – | – | – | – | – | – | – | – | – | – | promote apoptosis and reduce tumor growth |
